Measurements as given in ChEMBL document CHEMBL1135050, “Design and synthesis of 4,5-disubstituted-thiophene-2-amidines as potent urokinase inhibitors” (Bioorg Med Chem Lett, 2002).
Converted amounts (≈) assume the structure as drawn.

Target: Urokinase-type plasminogen activator (Homo sapiens, UniProt P00749)
Assay: Inhibition of Human kidney cell urokinase
Assay type: cell-based

Row | Compound | Ki [µM]
1 | COc1ccc(-c2csc(-c3cc(C(=N)N)sc3SC)n2)cc1OC | 0.058
2 | CSc1sc(C(=N)N)cc1-c1nc(-c2ccc(Cl)cc2)cs1 | 0.102
3 | COc1sc(C(=N)N)cc1-c1nc(-c2ccccc2)cs1 | 0.531
4 | CS(=O)(=O)c1sc(C(=N)N)cc1-c1nc(-c2ccc(Cl)cc2)cs1 | 2.5
5 | N=C(N)c1cc(-c2nc(-c3ccc(Cl)cc3)cs2)c(SCc2ccccc2)s1 | 2.5
6 | CCc1sc(C(=N)N)cc1-c1nc(-c2ccccc2)cs1 | 0.138

Tested on: not listed separately
Assay: Compound was evaluated for its solubility in water
Assay type: ADME

Row | Compound | solubility [µM]
7 | Cc1sc(C(=N)N)cc1-c1nc(-c2ccccc2)cs1 | 9000 (≈ 2690 µg/mL)
8 | CSc1sc(C(=N)N)cc1-c1nc(-c2ccccc2)cs1 | 300 (≈ 99.4 µg/mL)
9 | CCc1sc(C(=N)N)cc1-c1nc(-c2ccccc2)cs1 | 2700 (≈ 846 µg/mL)
